The numbers were not newly measured in patent publication US7718642B2, “AIDS prophylactic lubricating composition” (priority 1993, dated 2010), which cites them from elsewhere.

As usually defined, the CC50 is the concentration at which the toxic effect on the cells reaches its halfway point. By IC50 is commonly meant the concentration at which inhibition is half-maximal.

For one data set, the system named is sperm cells. As to conditions: diffusion into cervical mucous.
For data set [1] the following is noted: previous studies (Int J STD & AIDS); read-out: CC50 value (50% toxic dose).
The conditions of data set [2]: in vivo.
In data set [3] the test system is HIV.
Data set [4] has as its system HIV. As to conditions: used as contraceptive during sexual relations; J. Kreiss et al, JAMA 1992.

Consider `[H]/N=C(\N/C(=N/[H])NCCCCCCNC(=N)NC(=N)Nc1ccc(Cl)cc1)Nc1ccc(Cl)cc1` [chlorhexidine], for which the “Concentration that restricts penetration of sperm cells and causes loss of mobility” value with sperm cells was “above 0.1%”. In data set [1], the 50% cytotoxic concentration (CC50) was 1.3 µM. Moreover, in data set [2], the Undesirable side effects entry is listed as “does not produce any undesirable side effects”. Moreover, the selectivity value in the data set with HIV [3] (CC50/IC50, previous studies (Int J STD & AIDS)) is given as 5.2. Also, the IC50 in the data set on HIV [3] (previous studies (Int J STD & AIDS), read-out: IC50 value (50% inhibitory dose)) is 0.25 µM. Besides, the “Concentration that effectively destroys the envelope of viruses” value with viruses is “above 0.1%”.
In the case of nonoxynol-9, in the data set with HIV [4], the “Prevention of HIV transmission” value is recorded as “did not prevent HIV transmission”.
